Biological target: T1, SHP1 (Homo sapiens, UniProt P29350)
T1 construct: gene PTPN6; domain protein
T1 sequence (P29350 244-515 limits assumed): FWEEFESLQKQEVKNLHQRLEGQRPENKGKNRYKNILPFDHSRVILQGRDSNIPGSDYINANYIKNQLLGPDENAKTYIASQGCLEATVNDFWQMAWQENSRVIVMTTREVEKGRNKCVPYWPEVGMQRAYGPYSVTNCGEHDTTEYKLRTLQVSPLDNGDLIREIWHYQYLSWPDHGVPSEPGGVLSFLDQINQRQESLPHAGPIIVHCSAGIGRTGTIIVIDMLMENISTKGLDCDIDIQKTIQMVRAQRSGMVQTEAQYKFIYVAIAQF
Experiment: pNPP phosphatase assay, absorbance at […] nm
Assay type: biochemical

With `CO[C@@]1(C)[C@H](O)C(=O)C(C)=C(O)[C@@H]1Oc1c(C)c(O)cc(C)c1C(=O)O` [S10, Roseopurpurin A] as the molecule, how does the IC50 read?
Its IC50 is 16 µM.
